Source: patent US20090176968A1, “Preparation of Triazole Containing Metal Chelating Agents” (PAUL SCHERRER INSTITUT, priority 2006, published 2009)

Row | melting point | Compound
1 | > 220 °C (dec.) | N[C@@H](Cn1cc(Cc2ccccc2)nn1)C(=O)O [Compound L7]
2 | 272 to 274 °C | CCOC(=O)Cn1cc(C[C@H](N)C(=O)O)nn1 [Compound L3]
3 | > 195 °C (dec.) | NC(Cc1cn(Cc2ccccc2)nn1)C(=O)O (stereo not drawn) [Compound L1]
